Reference: patent publication US11000050B2 (priority 2015, dated 2021)

Tests used:
[1] = parameters: species or system Ross 308 male broilers; conditions: in vivo
[2] = tested on: Salmonella enteritidis PT4; parameters: species or system Ross 308 male broilers; conditions: in vivo
[3] = in vivo

## COc1cc(CNC(=O)CCCCC#Cc2ccccc2)ccc1O [phenylcapsaicin]
[1]
  spleen weight: did not affect
[2]
  Salmonella counts (ranked) vs control group: consistently lower
  Salmonella counts vs control chickens on a diet without phenylcapsaicin: numerically had lower
  caecal colonization of Salmonella enteritidis PT4: not affected
  differences in ranked numbers of Salmonella counts between control and 20 mg/kg treatment group: highly significant
  effective dose (most probable range): up to 20 mg/kg
  next highest Salmonella value in caecal digesta: 4.0×10^6 CFU/g
  two highest Salmonella values in caecal digesta (considered outliers): 1.2×10^7 CFU/g
[3]
  BWG with increasing dose level: tendency towards a lower BWG
  body weight (BW) vs 0, 20 or 28 mg/kg: significantly lower
  body weight gain (BWG) vs 0, 20 or 28 mg/kg: significantly lower
  daily feed intake: no effect
  feed conversion ratio vs other Salmonella inoculated treatments: higher
  feed intake: did not affect
[3]; 36 mg/kg
  BWG: numerically the lowest
  FCR: highest
